Structures are written as SMILES. Values after ≈ are worked out from the molar mass of the structure shown.

One molecule from ChEMBL document CHEMBL3393039, “Anthranilic acid derivatives as nuclear receptor modulators--development of novel PPAR selective and dual PPAR/FXR ligands” (Bioorg Med Chem, 2015) can be followed below.

The nature of series [1]: Cytotoxic activity against human HepG2 cells assessed as LDH release at 5 uM after 48 hrs by LDH release assay (reference value: 100%). (LDH in the medium is a marker of cell lysis.)
Series [2] concerns the target T1, Bile acid receptor (Homo sapiens) (UniProt Q96RI1).
T1 sequence (whole entry): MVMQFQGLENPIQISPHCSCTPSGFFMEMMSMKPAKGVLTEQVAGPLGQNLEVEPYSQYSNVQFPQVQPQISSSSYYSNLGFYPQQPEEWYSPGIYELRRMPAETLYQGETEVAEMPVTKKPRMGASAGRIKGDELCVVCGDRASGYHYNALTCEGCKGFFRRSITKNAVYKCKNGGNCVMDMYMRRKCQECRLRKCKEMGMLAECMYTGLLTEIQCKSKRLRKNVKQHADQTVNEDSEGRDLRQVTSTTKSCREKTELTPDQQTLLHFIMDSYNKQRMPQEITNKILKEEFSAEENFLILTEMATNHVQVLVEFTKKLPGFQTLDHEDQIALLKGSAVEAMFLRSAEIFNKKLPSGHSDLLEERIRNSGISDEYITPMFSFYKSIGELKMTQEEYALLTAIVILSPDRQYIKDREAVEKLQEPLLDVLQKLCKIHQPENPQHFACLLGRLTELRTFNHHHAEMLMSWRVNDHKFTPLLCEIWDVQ
Briefly: Transactivation of human FXR expressed in human HeLa cells incubated for 24 hrs by luciferase reporter gene assay relative to GW4064. The format is cell-based. (A reporter such as luciferase makes a cellular process visible.)

Series [3] has as its target T2, Peroxisome proliferator-activated receptor gamma (Homo sapiens) (UniProt P37231).
T2 sequence (whole entry): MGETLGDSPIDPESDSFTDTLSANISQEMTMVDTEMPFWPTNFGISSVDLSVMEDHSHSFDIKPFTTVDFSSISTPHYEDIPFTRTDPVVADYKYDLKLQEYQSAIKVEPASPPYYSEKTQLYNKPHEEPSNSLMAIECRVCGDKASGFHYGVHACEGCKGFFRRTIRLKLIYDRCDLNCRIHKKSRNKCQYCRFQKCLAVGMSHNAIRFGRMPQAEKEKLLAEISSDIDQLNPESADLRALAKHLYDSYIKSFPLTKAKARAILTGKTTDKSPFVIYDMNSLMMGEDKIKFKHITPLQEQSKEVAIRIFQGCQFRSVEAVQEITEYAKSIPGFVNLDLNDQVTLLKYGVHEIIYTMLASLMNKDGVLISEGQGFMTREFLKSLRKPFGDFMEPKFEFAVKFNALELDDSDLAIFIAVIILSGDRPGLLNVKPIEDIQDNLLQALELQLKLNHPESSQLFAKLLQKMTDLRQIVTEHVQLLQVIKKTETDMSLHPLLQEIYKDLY
Briefly: Transactivation of Gal4-tagged PPARgamma ligand binding domain (unknown origin) expressed in COS7 cells measured after overnight incubation by luciferase reporter gene assay relative to piaglitazone. Format: cell-based. Conditions: Chlorocebus aethiops; COS-7.

A short description of series [4]: Cytotoxic activity against human HepG2 cells assessed as LDH release at 30 uM after 48 hrs by LDH release assay (reference value: 100%).
Series [5] can be described thus: Aqueous solubility of the compound. The format is physicochemical. Conditions: aqueous medium (not specified further).
For series [6], the target named is T3, Peroxisome proliferator-activated receptor delta (Homo sapiens, UniProt Q03181).
T3 sequence (Q03181 whole entry): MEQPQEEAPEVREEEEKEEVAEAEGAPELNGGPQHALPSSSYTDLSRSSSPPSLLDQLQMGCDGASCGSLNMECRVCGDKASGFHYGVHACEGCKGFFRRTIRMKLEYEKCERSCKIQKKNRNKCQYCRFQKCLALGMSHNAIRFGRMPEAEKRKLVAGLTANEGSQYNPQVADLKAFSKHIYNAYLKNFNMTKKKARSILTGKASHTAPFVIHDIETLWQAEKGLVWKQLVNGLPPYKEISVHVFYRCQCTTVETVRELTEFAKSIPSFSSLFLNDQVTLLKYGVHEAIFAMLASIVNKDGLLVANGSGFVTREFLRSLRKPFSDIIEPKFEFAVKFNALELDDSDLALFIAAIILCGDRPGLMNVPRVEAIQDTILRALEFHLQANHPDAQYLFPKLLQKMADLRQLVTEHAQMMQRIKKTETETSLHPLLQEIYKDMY
Briefly: Transactivation of Gal4-tagged PPARdelta ligand binding domain (unknown origin) expressed in COS7 cells measured after overnight incubation by luciferase reporter gene assay. Format: cell-based, COS-7.

A short description of series [7]: Antiproliferative activity against human HepG2 cells assessed as cell viability at 10 uM after 48 hrs by WST1 assay (reference value: 100%). The format is cell-based. Conditions: read-out: Activity. (In general: Formazan colour is commonly taken as a measure of viable cells.)
The target of series [8] is T4, Peroxisome proliferator-activated receptor gamma (Homo sapiens, UniProt P37231).
T4 sequence (P37231 whole entry): T2 sequence (whole entry)
Briefly: Transactivation of Gal4-tagged PPARgamma ligand binding domain (unknown origin) expressed in COS7 cells measured after overnight incubation by luciferase reporter gene assay. Format: cell-based, COS-7.

Series [9] in a line: Antiproliferative activity against human HepG2 cells assessed as cell viability at 5 uM after 48 hrs by WST1 assay (reference value: 100%). Conditions: read-out: Activity. Format: cell-based.
For another series, the species on record is Homo sapiens. Nature of the series: Selectivity index, ratio of EC50 for Gal4-tagged PPARalpha ligand binding domain (unknown origin) to EC50 for Gal4-tagged PPARdelta ligand binding domain (unknown origin).
A short description of series [10]: Metabolic stability in Sprague-Dawley rat liver microsomes assessed as parent compound remaining at 10 uM measured after 15 mins in presence of NADPH regenerating system by HPLC method (reference value: 97.6 +/- 0.8%). Conditions: read-out: Stability. The format is ADME.
Series [11] in a line: Antiproliferative activity against human HepG2 cells assessed as cell viability at 50 uM after 48 hrs by WST1 assay (reference value: 100%). Conditions: read-out: Activity. Format: cell-based.
Series [12] addresses T5, Peroxisome proliferator-activated receptor delta (Homo sapiens) (UniProt Q03181).
T5 sequence (whole entry): T3 sequence (Q03181 whole entry)
Nature of the series: Transactivation of Gal4-tagged PPARdelta ligand binding domain (unknown origin) expressed in COS7 cells measured after overnight incubation by luciferase reporter gene assay relative to L165,041. Format: cell-based. Conditions: Chlorocebus aethiops; COS-7.

In series [13] the target is PPAR delta/gamma (Homo sapiens) (UniProt P37231+Q03181). Briefly: Selectivity index, ratio of EC50 for Gal4-tagged PPARgamma ligand binding domain (unknown origin) to EC50 for Gal4-tagged PPARdelta ligand binding domain (unknown origin).
The target in series [14] is T6, Peroxisome proliferator-activated receptor alpha (Homo sapiens, UniProt Q07869).
T6 sequence (Q07869 whole entry): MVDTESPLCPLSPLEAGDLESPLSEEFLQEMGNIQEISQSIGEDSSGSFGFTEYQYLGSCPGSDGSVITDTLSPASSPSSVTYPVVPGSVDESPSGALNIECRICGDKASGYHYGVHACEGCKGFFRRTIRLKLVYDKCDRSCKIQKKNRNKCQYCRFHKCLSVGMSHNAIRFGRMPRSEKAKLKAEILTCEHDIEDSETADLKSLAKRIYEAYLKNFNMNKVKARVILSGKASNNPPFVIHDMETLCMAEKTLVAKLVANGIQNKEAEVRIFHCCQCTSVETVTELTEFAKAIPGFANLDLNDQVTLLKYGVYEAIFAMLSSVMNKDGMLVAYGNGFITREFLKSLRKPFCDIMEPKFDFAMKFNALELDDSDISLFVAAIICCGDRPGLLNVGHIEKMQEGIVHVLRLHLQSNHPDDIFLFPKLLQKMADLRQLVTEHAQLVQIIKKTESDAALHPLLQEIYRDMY
Nature of the series: Transactivation of Gal4-tagged PPARalpha ligand binding domain (unknown origin) expressed in COS7 cells measured after overnight incubation by luciferase reporter gene assay. Format: cell-based, COS-7.

Series [15] in a line: Metabolic stability in Sprague-Dawley rat liver microsomes assessed as parent compound remaining at 10 uM measured after 60 mins in presence of NADPH regenerating system by HPLC method (reference value: 97.6 +/- 0.8%). Format: ADME. Conditions: read-out: Stability.
A short description of series [16]: Cytotoxic activity against human HepG2 cells assessed as LDH release at 10 uM after 48 hrs by LDH release assay (reference value: 100%).
The nature of series [17]: Metabolic stability in Sprague-Dawley rat liver microsomes assessed as parent compound remaining at 10 uM measured after 30 mins in presence of NADPH regenerating system by HPLC method (reference value: 97.6 +/- 0.8%). The format is ADME. Conditions: read-out: Stability.

As usually defined, the solubility is how much of the substance goes into solution per volume. Lower therefore signals a poorly soluble substance. What is called EC50 is the concentration at which the effect is half-maximal. A low value points to greater potency. Turning to `O=C(O)Cc1cccc(NC(=O)c2ccccc2NC(=O)c2ccc3ccccc3c2)c1`, in series [1], the LDH release (% cytotoxicity) at 48 h, 5 µM was -2.4%. In addition, the figures for the max activation in series [2], in [3] and in [12] were 20.9%, 335% and 147%, respectively. For the same molecule, the LDH release (% cytotoxicity) at 48 h, 30 µM in series [4] was 23.3%. The molecule also came in with a solubility in [5] of 6 µM (≈ 2.55 µg/mL). Also, the EC50 in series [6] was 1.3 µM; in [8], 18 µM; in series [14], 14.4 µM. Also, the viability at 48 h, 10 µM in series [7] was determined as 115%. In series [9], the viability at 48 h, 5 µM is 99.5%. The Ratio EC50 in the series listed under Homo sapiens was 11; in [13], 13. In addition, in series [10], the remaining at 0.25 h, 10 µM was found to be 91.4%. In addition, the viability at 48 h, 50 µM in series [11] was determined as 89.3%. In [15], the remaining at 1 h, 10 µM is 80.5%. Moreover, in [16], the LDH release (% cytotoxicity) at 48 h, 10 µM is 0.3%. The remaining at 0.5 h, 10 µM in [17] turned out to be 82.3%.
